“Also recorded” adds a separate entry of the source.
Key:
[1] = biological target: ERα ligand binding domain (Homo sapiens, UniProt P03372); test: Competitive [3H]-estradiol binding assay, ER-α (Example 21)
Experimental: (§1) ER binding affinity was determined via one of the following methods:
(§2) Briefly, the incubation mixture was filtered through a high affinity protein binding filter, and washed several times to remove any unbound radioactivity. The filter plate was air dried and sealed on the bottom.
(§3) Nonspecific binding was subtracted from total binding to yield specific binding.

[2] = biological target: ERβ ligand binding domain (Homo sapiens, UniProt Q92731); test: Competitive [3H]-estradiol binding assay, ER-β (Example 21)
Experimental: as §1, §2, §3

ER-β = ER-β (Rattus norvegicus (Rat), UniProt Q62986); test: Transient transactivation assay in HEK-293 cells, ER-β and ERE-LUC; type: cell-based; settings: for Function on ER-β in transactivation: HEK-293 cells
Experimental: Human estrogen receptors (ER-α and ER-β) were cloned from prostate cDNA into a pCR3.1 plasmid vector backbone. PGC-1 was cloned into mammalian two hybrid vector pACT. ER-β H475 was mutated to alanine using site-directed mutagenesis. Sequencing was performed to determine the absence of any non specific mutations. […] HEK-293 cells were plated at 100,000 cells per well of a 24 well plate in […] (DMEM)+5% charcoal-stripped fetal bovine serum (csFBS). […] Luciferase assays were performed 48 hrs after transfection.
The cells were treated with varying concentrations of the ligands and their EC50 values were determined.

[3] = test system: receptors for progesterone, mineralocorticoids, androgens, glucocorticoids, FXR, PXR, LXR, RXR, PPAR-α, PPAR-γ and ERR-α, ERR-β and ERR-γ; test: Transactivation assays for cross reactivity with 13 other NHR; type: cell-based; settings: concentrations as high as 10 μM; data not shown
[4] = test system: Ishikawa endometrial cells; test: Ishikawa growth assay (ALP); type: cell-based; settings: for Concentration at which proliferation of Ishikawa cells was induced: highest concentration tested
Experimental: Ishikawa cells were plated at 15,000 cells/well in 24 well plates in DME:F12 (1:1)+5% csFBS w/o phenol red. The cells were maintained in this medium at 37° C. for 3 days. Medium was changed immediately prior to drug treatment for an additional 72 hrs. After 72 hrs, the cells were fixed with formalin and the amount of alkaline phosphatase (ALP) measured by para-nitrophenyl phosphate method.
This effect is one potential concern in the development of ER-α SERMs.

[5] = test system: high fat diet (HFD) induced obesity model; test: High fat diet induced obesity, prevention studies; type: in vivo, C57BL6 male mice; settings: for Prevention of the increase in body fat (MRI) / Prevention of body weight increase caused by the high fat diet: Study 2, 30 mg/kg/day s.c.; for Lean mass (MRI): Study 2, high fat diet; for Fat mass (MRI): Study 2, versus high fat diet and vehicle
Experimental: The mice were treated for 12 weeks.

PPAR-γ = PPAR-γ transactivation (PPRE-LUC) in HEK-293 cells co-transfected with ER-β; type: cell-based
Experimental: FIG. 12 depicts the effect of ER-β ligand on PPAR-γ function through ligand binding domain (LBD). (A). HEK-293 cells were transfected with 0.25 μg PPRE-LUC, 5 ng CMV-renilla LUC and the indicated receptors (PPAR-γ and ER-β for the left panel and PPAR-α and ER-β for the right panel). The cells were treated 24 hrs after transfection with the indicated ligands and harvested 48 hrs after transfection and firefly luciferase activity was measured and normalized to renilla luciferase. (B). H475 in ER-β LBD is important for its function. H475 in ER-β LBD was mutated to alanine (A) using a site directed mutagenesis kit. Transactivation assay was performed as described in panel A in HEK-293 cells with a titration of ER-β ligands in wild type (WT) or ER-β H475A. (C). […] The cells were treated 24 hrs after transfection with the indicated ligands and harvested 48 hrs after transfection and firefly luciferase activity was measured and normalized to renilla luciferase. […] The cells were treated 24 hrs after transfection with the indicated ligands and harvested 48 hrs after transfection and firefly luciferase activity was measured and normalized to renilla luciferase. […] The cells were treated 24 hrs after transfection with the indicated ligands and harvested 48 hrs after transfection and firefly luciferase activity was measured and normalized to renilla luciferase. […]

SHP promoter = test: SHP promoter-luciferase assay in HEK-293 cells; type: cell-based; settings: transfected with FXR and ER-β
Experimental: FIG. 12 depicts the effect of ER-β ligand on PPAR-γ function through ligand binding domain (LBD). (A). HEK-293 cells were transfected with 0.25 μg PPRE-LUC, 5 ng CMV-renilla LUC and the indicated receptors (PPAR-γ and ER-β for the left panel and PPAR-α and ER-β for the right panel). The cells were treated 24 hrs after transfection with the indicated ligands and harvested 48 hrs after transfection and firefly luciferase activity was measured and normalized to renilla luciferase. (B). H475 in ER-β LBD is important for its function. H475 in ER-β LBD was mutated to alanine (A) using a site directed mutagenesis kit. Transactivation assay was performed as described in panel A in HEK-293 cells with a titration of ER-β ligands in wild type (WT) or ER-β H475A. (C). […] HEK-293 cells were transfected with 0.25 μg PPRE-LUC, 5 ng CMV-renilla LUC and 50 ng of the indicated receptors (PPAR-γ or PPAR-γ and wild type ER-β or PPAR-γ and ER-β H475A). The cells were treated 24 hrs after transfection with the indicated ligands and harvested 48 hrs after transfection and firefly luciferase activity was measured and normalized to renilla luciferase. (D). […] HepG2 cells were transfected with 0.25 μg PPRE-LUC, 5 ng CMV-renilla LUC, 0.5 μg PGC-1 or vector backbone and 100 ng of the indicated receptors (PPAR-γ or PPAR-γ and wild type ER-β or PPAR-γ and ER-β H475A for top panels and PPAR-α or PPAR-α and ER-β for bottom panel). The cells were treated 24 hrs after transfection with the indicated ligands and harvested 48 hrs after transfection and firefly luciferase activity was measured and normalized to renilla luciferase. (E). SHP-1 is an ER-β specific target gene. HEK-293 cells were transfected with 0.25 μg SHP-LUC, 5 ng CMV-renilla LUC and 50 ng of the indicated receptors (FXR and ER-α for the left panel and FXR and ER-β for the right panel). The cells were treated 24 hrs after transfection with the indicated ligands and harvested 48 hrs after transfection and firefly luciferase activity was measured and normalized to renilla luciferase. PPAR—peroxisome proliferator and activated receptor; ER—estrogen receptor; H—histidine; A—alanine; RLU—relative luciferase units; Tro—troglitazone; PGC-1—PPAR-γ coactivator; SHP—small heterodimer partner; FXR—farsenoid X receptor.
Human estrogen receptors (ER-α and ER-β) were cloned from prostate cDNA into a pCR3.1 plasmid vector backbone. PGC-1 was cloned into mammalian two hybrid vector pACT. ER-β H475 was mutated to alanine using site-directed mutagenesis. Sequencing was performed to determine the absence of any non specific mutations. SHP promoter (−572 to +10) (26) was cloned into pGL3 basic LUC reporter vector and human FXR was cloned into pCR3.1. […]

[6] = biological target: ER-α ligand binding domain (LBD) (Homo sapiens (Human), UniProt P03372); test: Ligand binding assay of 14m and 12u, ER-α (Example 22A)
[7] = high fat diet, 30 mg/kg/day s.c., 12 weeks
[8] = high fat diet, 30 mg/kg/day s.c.

ERβ ligand binding domain, sequence (Q92731 whole entry, looked up, the tested form may be a part): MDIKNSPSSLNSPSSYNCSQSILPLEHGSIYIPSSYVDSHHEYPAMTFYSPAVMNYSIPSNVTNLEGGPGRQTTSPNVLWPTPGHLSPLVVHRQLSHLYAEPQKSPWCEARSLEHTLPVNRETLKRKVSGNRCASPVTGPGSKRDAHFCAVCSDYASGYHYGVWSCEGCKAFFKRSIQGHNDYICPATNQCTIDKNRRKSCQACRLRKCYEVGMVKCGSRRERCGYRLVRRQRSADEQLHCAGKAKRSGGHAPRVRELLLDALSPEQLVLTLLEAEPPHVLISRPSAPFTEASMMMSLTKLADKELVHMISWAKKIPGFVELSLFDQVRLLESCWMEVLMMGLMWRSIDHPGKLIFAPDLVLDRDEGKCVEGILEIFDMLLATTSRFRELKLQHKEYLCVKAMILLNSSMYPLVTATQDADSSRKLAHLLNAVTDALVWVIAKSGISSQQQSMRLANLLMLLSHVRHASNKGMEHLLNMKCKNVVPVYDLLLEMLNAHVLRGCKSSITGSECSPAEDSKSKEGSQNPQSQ
ER-α ligand binding domain (LBD), sequence (P03372 whole entry, looked up, species assumed, the tested form may be a part): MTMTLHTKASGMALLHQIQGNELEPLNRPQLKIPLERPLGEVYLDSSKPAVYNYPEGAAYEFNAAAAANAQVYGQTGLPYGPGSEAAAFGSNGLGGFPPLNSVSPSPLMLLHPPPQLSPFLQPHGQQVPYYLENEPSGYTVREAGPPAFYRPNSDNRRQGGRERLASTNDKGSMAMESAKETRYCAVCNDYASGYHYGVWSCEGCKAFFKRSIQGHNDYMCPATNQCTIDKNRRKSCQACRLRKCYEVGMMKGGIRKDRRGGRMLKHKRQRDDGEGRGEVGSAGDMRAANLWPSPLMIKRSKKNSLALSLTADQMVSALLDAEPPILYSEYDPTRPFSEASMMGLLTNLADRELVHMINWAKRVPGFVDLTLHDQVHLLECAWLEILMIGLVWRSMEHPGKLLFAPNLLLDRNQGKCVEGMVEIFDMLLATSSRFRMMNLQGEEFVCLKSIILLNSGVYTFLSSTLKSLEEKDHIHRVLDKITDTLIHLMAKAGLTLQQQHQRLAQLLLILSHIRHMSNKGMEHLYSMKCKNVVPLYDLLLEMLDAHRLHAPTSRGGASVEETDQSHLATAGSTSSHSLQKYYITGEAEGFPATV
ERα ligand binding domain, sequence (P03372 whole entry, looked up, the tested form may be a part): as the sequence (P03372 whole entry, looked up, species assumed, the tested form may be a part) above

SMILES | EC50 (ER-β) [nM] | Function on ER-β in transactivation (ER-β) | Cross reactivity with 13 other NHR [3] | Ishikawa cell proliferation [4] | Concentration at which proliferation of Ishikawa cells was induced [4] [µM] | Prevention of the increase in body fat (MRI) [5] | Prevention of body weight increase caused by the high fat diet ([5]; 12 weeks) | Lean mass (MRI) [5] | Fat mass (MRI) [5] | Body weight versus normal diet controls [5, 7] | Gastrocnemius muscle weight ([5]; high fat diet, 12 weeks) | Serum testosterone levels ([5]; high fat diet, 12 weeks) | Testes weights ([5]; high fat diet, 12 weeks) | White adipose tissue (WAT) weight ([5]; high fat diet, 12 weeks) | Troglitazone-induced PPAR-γ activity (PPAR-γ) | SHP promoter activity (SHP promoter) | Ki [6] [nM] | other results
O=c1c2c(O)cc(O)cc2c(Br)cn1-c1ccc(O)cc1 [12u, 4-bromo-6,8-dihydroxy-2-(4-hydroxyphenyl)isoquinolin-1(2H)-one] | < 10 | agonists | did not cross react | weakly induced Ishikawa cell proliferation | 1 | more than 50% | more than 50% | increased muscle mass; also recorded: increased the lean mass | reduced fat mass; also recorded: significant reduction in fat mass | statistically indistinguishable from the normal diet controls | increased gastrocnemius muscle weight | did not affect the serum testosterone levels; also recorded: not altered | not altered | prevented the increase in the WAT weight; also recorded: decreased WAT weight | partially inhibited | neither of the ligands activated SHP | 40 | inhibition at 0.1 µM ([1]; 100 nM of compound, read-out: Percent Inhibition of [3H]-Estradiol Binding to ER-α): 61.3%; inhibition at 0.1 µM ([2]; read-out: Percent Inhibition of [3H]-Estradiol Binding to ER-β): 96.7%
N#Cc1cn(-c2ccc(O)cc2)c(=O)c2c(O)cc(O)cc12 [14m, 6,8-dihydroxy-2-(4-hydroxyphenyl)-1-oxo-1,2-dihydroisoquinoline-4-carbonitrile] | < 10 | agonists | did not cross react | weakly induced Ishikawa cell proliferation | 1 | more than 50% | more than 50% | increased muscle mass; also recorded: increased the lean mass | reduced fat mass; also recorded: significant reduction in fat mass | statistically indistinguishable from control mice; also recorded: statistically indistinguishable from the normal diet controls | increased gastrocnemius muscle weight | did not affect the serum testosterone levels; also recorded: not altered | not altered | prevented the increase in the WAT weight; also recorded: significantly reduced; also recorded: decreased WAT weight | partially inhibited | neither of the ligands activated SHP | 94 | Ki ([1]; read-out: ER-α binding constant (Ki)): 94 nM; Ki ([2]; read-out: ER-β binding constant (Ki)): 7 nM; Accumulation of fat in liver (oil red staining) ([5]; high fat diet): attenuated the accumulation of lipid droplets in the liver; also recorded: completely prevented the accumulation of fat in the liver; Serum cholesterol increase ([5]; high fat diet): significantly reversed; Serum leptin increase ([5]; high fat diet): significantly reversed; Serum macrophage inflammatory protein-1β (MIP-1β) ([5]; high fat diet): undetectable levels; Bone mineral content (BMC, DEXA) [5, 8]: prevented the loss in BMC; Feed consumption / total caloric intake [5, 8]: did not affect total caloric intake; Body fat (DEXA) [5, 7]: suppressing fat mass formation; Reduction in body weight compared to high fat diet and vehicle [5, 7]: greater than 85%; Weight gained more than normal diet-fed controls [5, 7]: 5%; Blood glucose levels in glucose tolerance test ([5]; high fat diet, 150 mg glucose orally): not statistically different from the normal diet controls; Serum follicle stimulating hormone (FSH) levels ([5]; high fat diet, 12 weeks): did not affect serum testosterone and follicle stimulating hormone (FSH) levels

Reference: patent publication US9604931B2, “Nuclear receptor binding agents” (GTx, Inc., priority 2007, dated 2017)
